For 45 molecules, IC50 results are on record in US7868005B2, “Pyrazinyl substituted piperazine-piperidines with CXCR3 antagonist activity” (Schering Corporation, priority 2005, dated 2011).

One assay concerns the target T1, human CXCR3 (N-delta 4) (Homo sapiens, UniProt P49682).
T1 construct: CD8 leader (N); Flag; expressed in transfected cells; membranes prepared
T1 sequence (P49682 5-368 limits assumed): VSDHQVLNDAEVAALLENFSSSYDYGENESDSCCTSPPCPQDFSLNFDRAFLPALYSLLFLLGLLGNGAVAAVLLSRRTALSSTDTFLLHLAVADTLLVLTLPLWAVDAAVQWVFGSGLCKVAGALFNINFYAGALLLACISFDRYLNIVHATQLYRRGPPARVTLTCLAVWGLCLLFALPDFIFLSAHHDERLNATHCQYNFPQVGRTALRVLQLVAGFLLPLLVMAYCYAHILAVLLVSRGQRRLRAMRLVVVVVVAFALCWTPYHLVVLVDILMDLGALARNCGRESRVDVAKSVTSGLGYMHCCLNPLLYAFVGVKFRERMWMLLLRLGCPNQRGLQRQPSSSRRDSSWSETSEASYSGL
As to the kind of experiment: Human CXCR3 (N-delta 4) Scintillation Proximity Assay (SPA), [125I] IP-10 binding to Ba/F3-hCXCR3 membranes. The note with it: IC50 rating, Table 1; read-out: IC50. The text has this:
The inventive compounds can readily be evaluated to determine activity at the CXCR3 receptors by known methods, such as, for example, development of a human CXCR3 (N-delta 4) Binding Assay.
Cloning and Expression of Human CXCR3 (N-delta 4):
The DNA encoding human CXCR3 was cloned by PCR using human genomic DNA (Promega, Madison, Wis.) as a template. The PCR primers were designed based on the published sequence of human orphan receptor GPR9 (1) with incorporated restriction sites, a Kozak consensus sequence, CD8 leader and Flag tag. The PCR product was subcloned into the mammalian expression vector pME18Sneo, a derivative of the SR-alpha expression vector (designated as pME18Sneo-hCXCR3 (N-delta 4).
IL-3-dependent mouse pro-B cells Ba/F3 were transfected by electroporation in 0.4 ml Dulbecco's PBS containing 4×10^6 cells with 20 μg of pME18Sneo-hCXCR3 (N-delta 4) plasmid DNA. Cells were pulsed at 400 Volts, 100 OHMs, 960 μFd. The transfected cells were under selection with 1 mg/ml G418 (Life Technologies, Gaithersburg, Md.). G418-resistant Ba/F3 clones were screened for CXCR3 expression by specific binding of [^125I] IP-10 (NEN Life Science Products, Boston, Mass.).
Preparation of Ba/F3-hCXCR3 (N-delta 4) Membranes:
Ba/F3 cells expressing human CXCR3 (N-delta 4) were pelleted and resuspended in the lysis buffer containing 10 mM HEPES, pH 7.5 and Complete® protease inhibitors (1 tablet per 100 ml) (Boehringer Mannheim, Indianapolis, Ind.) at a cell density of 20×10^6 cells per ml. After 5 minute incubation on ice, cells were transferred to 4639 cell disruption bomb (Parr Instrument, Moline, Ill.) and applied with 1,500 psi of nitrogen for 30 minutes on ice. Large cellular debris was removed by centrifugation at 1,000×g. Cell membrane in the supernatant was sedimented at 100,000×g. The membrane was resuspended in the lysis buffer supplemented with 10% sucrose and stored at −80° C. Total protein concentration of the membrane was determined by BCA method from Pierce (Rockford, Ill.).
Human CXCR3 (N-delta 4) Scintillation Proximity Assay (SPA):
For each assay point, 2 μg of membrane was preincubated for 1 hr with 300 μg wheat germ agglutinin (WGA) coated SPA beads (Amersham, Arlington Heights, Ill.) in the binding buffer (50 mM HEPES, 1 mM CaCl2, 5 mM MgCl2, 125 mM NaCl, 0.002% NaN3, 1.0% BSA) at room temperature. The beads were spun down, washed once, resuspended in the binding buffer and transferred to a 96-well Isoplate (Wallac, Gaithersburg, Md.). 25 pM of [^125I] IP-10 with tested compounds in a series of titration were added to start the reaction. After 3 hr reaction at room temperature, the amount of [^125I] IP-10 bound to the SPA beads was determined with a Wallac 1450 Microbeta counter.
The Ki ratings for the various compounds of the present invention are given in the afore-mentioned Table 1. From these ratings and value ranges, it would be apparent to the skilled artisan that the compounds of the invention have excellent utility as CXCR3 receptor antagonists.
As a reminder, the IC50 is the concentration that gives 50% inhibition. For `CNC(=O)c1nc(Cl)c(N2CCN(C3CCN(Cc4ccc(Cl)cc4)CC3)[C@@H](C)C2)nc1N` [compound 65], the IC50 is under 25 nM.
Still for that read-out and setting: in the case of `CC[C@H]1CN(c2nc(N)c(C(=O)NC)nc2Cl)CCN1C1CCN(Cc2ccc(-n3cccn3)cc2)CC1` [compound 66] it was under 25 nM.
Same read-out and setting: in the case of `CC[C@H]1CN(c2nc(N)c(C(=O)OC)nc2Cl)CCN1C1CCN(Cc2ccc(Cl)cc2)CC1` [compound 67] it was under 25 nM.
Still for that read-out and setting: in the case of `CNC(=O)c1nc(Cl)c(N2C[C@H](C)N(C3CCN(Cc4ccc(Cl)cc4F)CC3)C[C@H]2C)nc1N` [compound 68] it was under 25 nM; in that of `CC[C@H]1CN(c2nc(N)c(C(=O)NC)nc2Cl)CCN1C1CCN([C@@H](C(=O)OC)c2ccc(Cl)cc2)CC1` [compound 69], under 25 nM; in that of `CC[C@H]1CN(c2nc(N)c(C(=O)NC)nc2Cl)CCN1C1CCN([C@@H](C(=O)O)c2ccc(Cl)cc2)CC1` [compound 70], under 25 nM.
On to `CC[C@H]1CN(c2nc(N)c(C(=O)NC)nc2Cl)CCN1C1CCN([C@@H](C(=O)NC)c2ccc(Cl)cc2)CC1` [compound 71], for which the IC50 lay in the range of 25 to 100 nM.
Still for that read-out and setting: then `CC[C@H]1CN(c2nc(N)c(C(=O)NC)nc2Cl)CCN1C1CCN(CCCCc2ccc(Cl)cc2)CC1` [compound 72], with 25 to 100 nM; and `CC[C@H]1CN(c2nc(N)c(C(=O)NC)nc2Cl)CCN1C1CCN(CCCC(=O)c2ccc(Cl)cc2)CC1` [compound 73], with 25 to 100 nM.
For `CC[C@H]1CN(c2nc(N)c(C(=O)NC)nc2Cl)CCN1C1CCN([C@H](CO)c2ccc(Cl)cc2)CC1` [compound 74], the IC50 was in the range of 25 to 100 nM.
Still for that read-out and setting: then `CC[C@H]1CN(c2nc(N)c(C(=O)NC)nc2Cl)CCN1C1CCN(Cc2ccc(-n3cncn3)cc2)CC1` [compound 75], with 25 to 100 nM.
As for `CC[C@H]1CN(c2nc(N)c(C(=O)NC)nc2Cl)CCN1C1CCN([C@@H](C(N)=O)c2ccc(Cl)cc2)CC1` [compound 76], the IC50 was over 100 nM.
The same measure, in the same setting: in the case of `CC[C@H]1CN(c2nc(N)c(C(=O)NC)nc2Cl)CCN1C1CCN([C@H](C(=O)OC)c2ccc(Cl)cc2)CC1` [compound 77] it was over 100 nM; in that of `CC[C@H]1CN(c2nc(N)c(C(=O)NC)nc2Cl)CCN1C1CCN(CCCOc2ccc(F)cc2)CC1` [compound 78], over 100 nM; in that of `CC[C@H]1CN(c2nc(N)c(C(=O)NC)nc2Cl)CCN1C1CCN(CCCNC(=O)c2ccc(Cl)cc2)CC1` [compound 79], over 100 nM.
Still for that read-out and setting: then `CC[C@H]1CN(c2nc(N)c(C(=O)NC)nc2Cl)CCN1C1(C)CCN(Cc2ccc(Cl)cc2)CC1` [compound 80], with over 100 nM; and `CC[C@H]1CN(c2nc(N)c(C(=O)NC)nc2Cl)CCN1C1(C)CCN(Cc2ccc(Cl)cc2C(=O)NC)CC1` [compound 81], with over 100 nM; and `CC[C@H]1CN(c2nc(N)c(C(=O)NC3CC3)nc2Cl)CCN1C1CCN(Cc2ccc(Cl)cc2C(N)=O)CC1` [compound 82], with under 25 nM.
On the same count and under the same terms, in the case of `CC[C@H]1CN(c2nc(N)c(C(=O)NC3CC3)nc2Cl)CCN1C1CCN(Cc2ccc(Cl)cc2F)CC1` [compound 83] it was under 25 nM; in that of `CC[C@H]1CN(c2nc(N)c(C(=O)NC3CC3)nc2Cl)CCN1C1CCN(Cc2ccc(Cl)cc2O)CC1` [compound 84], under 25 nM; in that of `CC[C@H]1CN(c2nc(N)c(C(=O)NC3CC3)nc2Cl)CCN1C1CCN(Cc2ccc(Cl)cc2OCCO)CC1` [compound 85], under 25 nM.
As for `CC[C@H]1CN(c2nc(N)c(C(=O)NC3CC3)nc2Cl)CCN1C1CCN(Cc2ccc(C#N)cc2OCCO)CC1` [compound 86], the IC50 is under 25 nM.
The same measure, in the same setting: then `CC[C@H]1CN(c2nc(N)c(C(=O)NC3CC3)nc2Cl)CCN1C1CCN(Cc2ccc(Cl)cc2CN)CC1` [compound 87], with under 25 nM.
The same measure, in the same setting: in the case of `CC[C@H]1CN(c2nc(N)c(C(=O)NC3CC3)nc2Cl)CCN1C1CCN(Cc2ccc(Cl)cc2C#N)CC1` [compound 88] it was under 25 nM; in that of `CC[C@H]1CN(c2nc(N)c(C(=O)NC3CC3)nc2Cl)CCN1C1CCN(Cc2ccc(C#N)cc2OCCOC)CC1` [compound 89], under 25 nM.
For `CC[C@H]1CN(c2nc(N)c(C(=O)NC3CC3)nc2Cl)CCN1C1CCN(Cc2ccc(Cl)cc2C(=O)OC)CC1` [compound 90], the IC50 was under 25 nM.
Still for that read-out and setting: then `CCC1CN(c2nc(N)c(C(=O)NC3CC3)nc2Cl)CCN1C1CCN(C(CCN)c2ccc(Cl)cc2)CC1` (stereo not shown) [compound 91], with under 25 nM; and `CC[C@H]1CN(c2nc(N)c(C(=O)NC3CC3)nc2Cl)CCN1C1CCN(Cc2ccc(C#N)cc2OCC(=O)NC2CC2)CC1` [compound 92], with under 25 nM.
The same measure, in the same setting: in the case of `CC[C@H]1CN(c2nc(N)c(C(=O)NC3CC3)nc2Cl)CCN1C1CCN(Cc2ccc(C#N)cc2OCCN2CCCC2=O)CC1` [compound 93] it was under 25 nM.
The same measure, in the same setting: then `C[C@@H]1CN(C2CCN(Cc3ccc(Cl)cc3F)CC2)[C@@H](C)CN1c1cnc(C(=O)NC2CC2)cn1` [compound 94], with 25 to 100 nM; and `CC[C@H]1CN(c2nc(N)c(C(=O)NC3CC3)nc2Cl)CCN1C1CCN(Cc2ccc(Cl)cc2)CC1O` (stereo partly shown) [compound 95], with 25 to 100 nM.
Turning to `CC[C@H]1CN(c2nc(N)c(C(=O)NC3CC3)nc2Cl)CCN1C1CCN(C(CCNC(=O)OC(C)(C)C)c2ccc(Cl)cc2)CC1` (stereo partly shown) [compound 96], the IC50 was over 100 nM.
On the same count and under the same terms, in the case of `CC[C@H]1CN(c2nc(N)c(C(=O)NC3CC3)nc2Cl)CCN1C1CCN(Cc2ccc(OCC(N)=O)cc2)CC1` [compound 97] it was over 100 nM; in that of `CC[C@H]1CN(c2nc(N)c(C(=O)NC3CC3)nc2Cl)CCN1C1CCN(Cc2ccc(Cl)cc2)CC1O` (stereo partly shown) [compound 98], over 100 nM.
As to `CC[C@H]1CN(c2nc(N)c(C(=O)NCCOc3ccccc3)nc2Cl)CCN1C1CCN(Cc2ccc(C#N)cc2)CC1` [compound 99], the IC50 is under 25 nM.
Same read-out and setting: then `CC[C@H]1CN(c2nc(N)c(C(=O)NCCS(C)(=O)=O)nc2Cl)CCN1C1CCN(Cc2ccc(Cl)cc2)CC1` [compound 100], with under 25 nM.
On the same count and under the same terms, in the case of `CC[C@H]1CN(c2nc(N)c(C(=O)NCCS(C)(=O)=O)nc2Cl)CCN1C1CCN(Cc2ccc(Cl)cc2)CC1` [compound 101] it was 25 to 100 nM; in that of `CCNC(=O)c1nc(Cl)c(N2CCN(C3CCN(Cc4ccc(Cl)cc4)CC3)[C@@H](CC)C2)nc1N` [compound 102], under 25 nM.
Same read-out and setting: then `CCNC(=O)c1nc(Cl)c(N2CCN(C3CCN(Cc4ccc(Cl)cc4F)CC3)[C@@H](CC)C2)nc1N` [compound 103], with under 25 nM; and `CCNC(=O)c1nc(Cl)c(N2CCN(C3CCN(C(C)(C)c4ccc(Cl)cc4)CC3)[C@@H](CC)C2)nc1N` [compound 104], with 25 to 100 nM.
For the molecule `CC[C@H]1CN(c2nc(N)c(C(=O)NCC(=O)O)nc2Cl)CCN1C1CCN(Cc2ccc(Cl)cc2)CC1` [compound 105], the IC50 was over 100 nM.
Same read-out and setting: then `CCNC(=O)c1nc(Cl)c(N2CCN(C3CCN(C(C)(C)c4ccc(Cl)cc4)CC3)[C@@H](C)C2)nc1N` [compound 106], with over 100 nM; and `CC[C@H]1CN(c2nc(N)c(C(=O)NCCO)nc2Cl)CCN1C1CCN(Cc2ccc(Cl)cc2CO)CC1` [compound 107], with under 25 nM.
The same measure, in the same setting: then `CC[C@H]1CN(c2nc(N)c(C(=O)NCCO)nc2Cl)CCN1C1CCN(Cc2ccc(Cl)cc2/C(N)=N\O)CC1` [compound 108], with under 25 nM; and `CC[C@H]1CN(c2nc(N)c(C(=O)NCCO)nc2Cl)CCN1C1CCN([C@@H](CO)c2ccc(Cl)cc2)CC1` [compound 109], with under 25 nM.

Staying with this assay, now noted: read-out: IC50.
Take `CC[C@H]1CN(c2nc(N)c(C(=O)NCCO)nc2Cl)CCN1C1CCN(Cc2ccc(Cl)cc2CO)CC1` [compound 107]: the IC50 was determined as 0.2 nM.
